Source: PubChem BioAssay (NCI)
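Results reflect a 48-hour exposure of cells in 96-well plates to compound at five concentrations. TGI: concentration producing complete growth inhibition.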

How the values were obtained:
Assay in all cases: DTP human tumour cell line panel, 48 h
786-0 renal = tested on: 786-0 renal
A498 renal = tested on: A498 renal
A549 NSCLC = tested on: A549 NSCLC
ACHN renal = tested on: ACHN renal
BT-549 breast = tested on: BT-549 breast
CAKI-1 renal = tested on: CAKI-1 renal
CCRF-CEM leukemia = tested on: CCRF-CEM leukemia
COLO 205 colon = tested on: COLO 205 colon
DU-145 prostate = tested on: DU-145 prostate
EKVX NSCLC = tested on: EKVX NSCLC
HCC-2998 colon = tested on: HCC-2998 colon
HCT-116 colon = tested on: HCT-116 colon
HCT-15 colon = tested on: HCT-15 colon
HL-60(TB) leukemia = tested on: HL-60(TB) leukemia
HOP-62 NSCLC = tested on: HOP-62 NSCLC
HOP-92 NSCLC = tested on: HOP-92 NSCLC
HS 578T breast = tested on: HS 578T breast
HT29 colon = tested on: HT29 colon
IGROV1 ovarian = tested on: IGROV1 ovarian
K-562 leukemia = tested on: K-562 leukemia
KM12 colon = tested on: KM12 colon
LOX IMVI melanoma = tested on: LOX IMVI melanoma
M14 melanoma = tested on: M14 melanoma
MALME-3M melanoma = tested on: MALME-3M melanoma
MCF7 breast = tested on: MCF7 breast
MDA-MB-435 = tested on: MDA-MB-435
MDA-N = tested on: MDA-N
MOLT-4 leukemia = tested on: MOLT-4 leukemia
NCI-H226 lung = tested on: NCI-H226 lung
NCI-H23 lung = tested on: NCI-H23 lung
NCI-H460 lung = tested on: NCI-H460 lung
NCI-H522 lung = tested on: NCI-H522 lung
NCI/ADR-RES ovarian = tested on: NCI/ADR-RES ovarian
OVCAR-3 ovarian = tested on: OVCAR-3 ovarian
OVCAR-4 ovarian = tested on: OVCAR-4 ovarian
OVCAR-5 ovarian = tested on: OVCAR-5 ovarian
OVCAR-8 ovarian = tested on: OVCAR-8 ovarian
PC-3 prostate = tested on: PC-3 prostate
RPMI-8226 leukemia = tested on: RPMI-8226 leukemia
RXF 393 renal = tested on: RXF 393 renal
SF-268 CNS = tested on: SF-268 CNS
SF-295 CNS = tested on: SF-295 CNS
SF-539 CNS = tested on: SF-539 CNS
SK-MEL-28 melanoma = tested on: SK-MEL-28 melanoma
SK-MEL-5 melanoma = tested on: SK-MEL-5 melanoma
SK-OV-3 ovarian = tested on: SK-OV-3 ovarian
SN12C renal = tested on: SN12C renal
SNB-19 CNS = tested on: SNB-19 CNS
SNB-75 CNS = tested on: SNB-75 CNS
SR leukemia = tested on: SR leukemia
SW-620 colon = tested on: SW-620 colon
T-47D breast = tested on: T-47D breast
UACC-257 melanoma = tested on: UACC-257 melanoma
UACC-62 melanoma = tested on: UACC-62 melanoma
UO-31 renal = tested on: UO-31 renal
MDA-MB-231 breast = tested on: MDA-MB-231 breast
SK-MEL-2 melanoma = tested on: SK-MEL-2 melanoma
TK-10 renal = tested on: TK-10 renal
U251 CNS = tested on: U251 CNS

For `COc1ccc(OC)c(NC(=O)c2c(Cl)c(Cl)c(Cl)c(Cl)c2-c2nc3ccccc3[nH]2)c1`, the TGI (786-0 renal) was greater than 100 µM, the TGI (A498 renal) was greater than 100 µM and the TGI (A549 NSCLC) was greater than 100 µM. The TGI (ACHN renal) was greater than 100 µM, the TGI (BT-549 breast) was greater than 100 µM and the TGI (CAKI-1 renal) was greater than 100 µM. It also gave a TGI (CCRF-CEM leukemia) greater than 100 µM, a TGI (COLO 205 colon) greater than 100 µM and a TGI (DU-145 prostate) greater than 100 µM. The TGI (EKVX NSCLC) was greater than 100 µM, the TGI (HCC-2998 colon) was greater than 100 µM and the TGI (HCT-116 colon) was greater than 100 µM. It also gave a TGI (HCT-15 colon) greater than 100 µM, a TGI (HL-60(TB) leukemia) greater than 100 µM and a TGI (HOP-62 NSCLC) greater than 100 µM. The TGI (HOP-92 NSCLC) was greater than 100 µM, the TGI (HS 578T breast) was greater than 100 µM and the TGI (HT29 colon) was greater than 100 µM. For the same compound, the TGI (IGROV1 ovarian) was greater than 100 µM, the TGI (K-562 leukemia) was greater than 100 µM and the TGI (KM12 colon) was greater than 100 µM. It also gave a TGI (LOX IMVI melanoma) greater than 100 µM, a TGI (M14 melanoma) greater than 100 µM and a TGI (MALME-3M melanoma) greater than 100 µM. The TGI (MCF7 breast) was greater than 100 µM, the TGI (MDA-MB-435) was greater than 100 µM and the TGI (MDA-N) was greater than 100 µM. The TGI (MOLT-4 leukemia) was greater than 100 µM, the TGI (NCI-H226 lung) was greater than 100 µM and the TGI (NCI-H23 lung) was greater than 100 µM. It also gave a TGI (NCI-H460 lung) greater than 100 µM, a TGI (NCI-H522 lung) greater than 100 µM and a TGI (NCI/ADR-RES ovarian) greater than 100 µM. It also gave a TGI (OVCAR-3 ovarian) greater than 100 µM, a TGI (OVCAR-4 ovarian) greater than 100 µM and a TGI (OVCAR-5 ovarian) greater than 100 µM. For the same compound, the TGI (OVCAR-8 ovarian) was greater than 100 µM, the TGI (PC-3 prostate) was greater than 100 µM and the TGI (RPMI-8226 leukemia) was greater than 100 µM. The TGI (RXF 393 renal) was greater than 100 µM, the TGI (SF-268 CNS) was greater than 100 µM and the TGI (SF-295 CNS) was greater than 100 µM. It also gave a TGI (SF-539 CNS) greater than 100 µM, a TGI (SK-MEL-28 melanoma) greater than 100 µM and a TGI (SK-MEL-5 melanoma) greater than 100 µM. For the same compound, the TGI (SK-OV-3 ovarian) was greater than 100 µM, the TGI (SN12C renal) was greater than 100 µM and the TGI (SNB-19 CNS) was greater than 100 µM. The TGI (SNB-75 CNS) was greater than 100 µM, the TGI (SR leukemia) was greater than 100 µM and the TGI (SW-620 colon) was greater than 100 µM. It also gave a TGI (T-47D breast) greater than 100 µM, a TGI (UACC-257 melanoma) greater than 100 µM and a TGI (UACC-62 melanoma) greater than 100 µM. For the same compound, the TGI (UO-31 renal) was greater than 100 µM.
`CN(CCNC(=O)c1nn(-c2ccccc2)c2c1ccc1ccccc12)CCNC(=O)c1nn(-c2ccccc2)c2c1ccc1ccccc12` gave a TGI (786-0 renal) of 3.04 µM, a TGI (A498 renal) of 5.29 µM and a TGI (A549 NSCLC) of 10.6 µM. For the same compound, the TGI (ACHN renal) was 5.51 µM, the TGI (BT-549 breast) was 21.8 µM and the TGI (CAKI-1 renal) was 15.6 µM. The TGI (CCRF-CEM leukemia) was 9.92 µM, the TGI (COLO 205 colon) was 2.99 µM and the TGI (DU-145 prostate) was 70.2 µM. For the same compound, the TGI (EKVX NSCLC) was 4.41 µM, the TGI (HCC-2998 colon) was 2.92 µM and the TGI (HCT-116 colon) was 2.87 µM. It also gave a TGI (HCT-15 colon) of 3.39 µM, a TGI (HL-60(TB) leukemia) of 3.94 µM and a TGI (HOP-62 NSCLC) of 3.38 µM. The TGI (HOP-92 NSCLC) was 3.79 µM, the TGI (HS 578T breast) was 4.22 µM and the TGI (HT29 colon) was 15.8 µM. For the same compound, the TGI (IGROV1 ovarian) was 5.27 µM, the TGI (KM12 colon) was 6.22 µM and the TGI (LOX IMVI melanoma) was 3.18 µM. The TGI (M14 melanoma) was 3.85 µM, the TGI (MALME-3M melanoma) was 3.84 µM and the TGI (MCF7 breast) was 3.91 µM. The TGI (MDA-MB-231 breast) was 2.74 µM, the TGI (MDA-MB-435) was 4 µM and the TGI (MDA-N) was 3.19 µM. For the same compound, the TGI (MOLT-4 leukemia) was 1.72 µM, the TGI (NCI-H226 lung) was 7.7 µM and the TGI (NCI-H23 lung) was 6.78 µM. For the same compound, the TGI (NCI-H460 lung) was 2.99 µM, the TGI (NCI-H522 lung) was 3.6 µM and the TGI (NCI/ADR-RES ovarian) was 9.15 µM. For the same compound, the TGI (OVCAR-3 ovarian) was 4.16 µM, the TGI (OVCAR-4 ovarian) was 22.1 µM and the TGI (OVCAR-5 ovarian) was 40.5 µM. It also gave a TGI (OVCAR-8 ovarian) of 3.29 µM, a TGI (PC-3 prostate) of 7.08 µM and a TGI (RPMI-8226 leukemia) of 1.8 µM. The TGI (RXF 393 renal) was 3.34 µM, the TGI (SF-268 CNS) was 4.6 µM and the TGI (SF-295 CNS) was 3.21 µM. For the same compound, the TGI (SF-539 CNS) was 3.07 µM, the TGI (SK-MEL-2 melanoma) was 3.5 µM and the TGI (SK-MEL-28 melanoma) was 3.23 µM. For the same compound, the TGI (SK-MEL-5 melanoma) was 3.1 µM, the TGI (SK-OV-3 ovarian) was 7.28 µM and the TGI (SN12C renal) was 3.46 µM. The TGI (SNB-19 CNS) was 8.11 µM, the TGI (SNB-75 CNS) was 5.55 µM and the TGI (SW-620 colon) was 4.46 µM. It also gave a TGI (T-47D breast) of 6.95 µM, a TGI (TK-10 renal) of 3.37 µM and a TGI (U251 CNS) of 3.05 µM. For the same compound, the TGI (UACC-257 melanoma) was 3.22 µM, the TGI (UACC-62 melanoma) was 3.37 µM and the TGI (UO-31 renal) was 3.78 µM.
